Assay results: patent US8476300B2, “Selective estrogen receptor modulator for the treatment of osteoarthritis” (Eli Lilly and Company, priority 2008, dated 2013)

Columns and labels:
[1] = system: Ishikawa cells; test: Ishikawa cell proliferation assay (alkaline phosphatase readout; agonist and antagonist modes); format: cell-based; settings: for agonist activity: agonist mode, compound alone, versus the response to tamoxifen
Experimental: Ishikawa Cell Proliferation Assay:
This assay measures cell proliferation (using an alkaline phosphatase readout) in both an agonist mode in the presence of a test compound alone, and in an antagonist mode in which the ability of a test compound to block estradiol stimulation of growth is measured.
After an overnight incubation, Ishikawa cells are rinsed with Dulbecco's Phosphate Buffered Saline (“D-PBS”) without Ca^+2 and Mg^+2, and trypsinized by a 3 minute incubation with 0.25% Trypsin/EDTA, phenol red-free. Cells are re-suspended in assay medium and adjusted to 250,000 cells/mL. Approximately 25,000 cells in a 100 μl media are added to flat-bottom 96 wells microculture plates and incubated at 37° C. in a 5% CO2 humidified incubator for 24 hours. The next day, serial dilutions of compounds are prepared in assay medium (at 6 times the final concentration in the assay). The assay is run in dual mode, agonist and antagonist modes.
For the agonist mode, plates receive 25 μL/well of assay medium followed by 25 μL/well of a diluted test compound (at 6× the final concentrations). For the antagonist mode, plates receive 25 μL/well of 6 nM 17 β-estradiol (“E2”) followed by 25 μL/well of a diluted test compound (at 6× the final concentrations). After an additional 48-hour incubation at 37° C. in a 5% CO2 humidified incubator, media is aspirated from wells and 100 μL fresh assay medium is added to each microculture. Serial dilutions of compounds are prepared and added to the cells as described above. After an additional 72 hour incubation at 37° C. in a 5% CO2 humidified incubator, the assay is quenched by removing media and rinsing plates twice in D-PBS. The plates are dried for 5 minutes and frozen at −70° C. for at least 1 hour. The plates are then removed from the freezer and allowed to thaw at room temperature. After a 20-minute incubation, plates are read on a spectophotometer at 405 nm.
The data are fitted using a 4 parameter fit model to derive EC50 (for agonist mode) or IC50 (for antagonist mode) values. For the antagonist mode, a % efficacy for each compound is calculated versus E2 (1 nM) alone. For the agonist mode, a % efficacy for each compound is calculated versus the response to tamoxifen. […] The average agonist activity of the compound of Example 1 alone was 17.7%±11.3% (n=4) (arithmetric mean±standard deviation). The values for the compound of Example 1 may be compared to 4-hydroxytamoxifen which generally results in >100% agonist activity.

[2] = system: immature rat uterus (estrogen-induced uterine weight); test: 3-Day immature rat uterus antagonist assay; format: in vivo; settings: oral, 3 days, with EE2 0.1 mg/kg
Text: 3-Day Immature Rat Uterus Antagonist Assay:
This model for uterine antagonism utilizes immature (3 week old) female rats that are highly sensitive to estrogenic stimulation of the uterus given that their circulating estrogen levels are prepubertal. The uteri from immature rats are fully responsive to exogenous estrogen, yet are quiescent in the absence of exogenous estrogen. Administration of exogenous estrogen to immature rats produces a reliable elevation of uterine weight, which can be used to study uterine antagonist effects. The rats are treated with both estradiol and 4 different concentrations of a test compound for 3 days and then uterine wet weights are measured. […]
Uterine weight/body weight ratios (UWR) are calculated for each animal. The percent inhibition of the estrogen-induced response is then calculated by the following formula: percent inhibition=100×(UWRestrogen−UWRtest compound)/(UWRestrogen−UWRcontrol)
ED50 values are derived from a semi-log regression analysis of the linear aspect of the dose response curve. Both the UWR data and the percent inhibition data are statistically analyzed by one way analysis of variance (ANOVA) with post-hoc testing by Fisher's PLSD when indicated by a p<0.05.

[3] = molecular target: ERβ receptor (Homo sapiens, UniProt Q92731); test: Estrogen receptor competition binding assay (3H-estradiol displacement), ERβ; settings: geometric mean±standard deviation, from IC50 by Cheng-Prusoff, read-out: Ki-β
ERβ receptor, sequence (Q92731 whole entry): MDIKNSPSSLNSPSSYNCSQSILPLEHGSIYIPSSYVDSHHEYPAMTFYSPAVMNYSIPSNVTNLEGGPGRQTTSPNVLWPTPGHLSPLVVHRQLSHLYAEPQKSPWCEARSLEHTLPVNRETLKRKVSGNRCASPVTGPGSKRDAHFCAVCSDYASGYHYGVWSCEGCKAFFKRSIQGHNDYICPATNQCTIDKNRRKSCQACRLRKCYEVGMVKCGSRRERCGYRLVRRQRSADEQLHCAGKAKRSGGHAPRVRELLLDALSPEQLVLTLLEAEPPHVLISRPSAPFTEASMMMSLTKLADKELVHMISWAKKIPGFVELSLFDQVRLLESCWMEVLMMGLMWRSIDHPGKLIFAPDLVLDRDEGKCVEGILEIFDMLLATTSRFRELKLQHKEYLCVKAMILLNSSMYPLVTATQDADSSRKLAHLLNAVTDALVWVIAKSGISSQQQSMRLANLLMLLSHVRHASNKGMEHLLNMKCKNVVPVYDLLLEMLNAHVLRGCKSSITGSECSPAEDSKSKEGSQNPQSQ
Experimental: (§1) Estrogen Receptor Binding Assay:
(§2) Compounds are tested for binding affinity to both estrogen receptor types (ERα and ERβ) by a competition binding assay that measures the compound's ability to displace ^3H-estradiol from the receptors. IC50 and Ki values for both receptor types can be calculated.
(§3) A competition binding assay is run in a buffer containing 50 mM HEPES buffering reagent, pH 7.5, 1.5 mM ethylenediaminetetraacetic acid (“EDTA”), 150 mM NaCl, 10% glycerol, 1 mg/mL ovalbumin and 5 mM dithiothreitol (“DTT”), using 0.025 μCi per well ^3H-Estradiol (NEN#NET517 at 118 Ci/mmol, 1 mCi/mL), 10 ng/well ERα or ERβ receptor. A test compound is added at 10 different concentrations. Non-specific binding is determined in the presence of 1 μM of estradiol (17 β-estradiol). The binding reaction (140 μL) is incubated for 4 hours at room temperature, then 70 μl of cold DCC buffer is added to each reaction (DCC buffer contains per 50 mL of assay buffer, 750 mg of charcoal and 250 mg of dextran). Plates are mixed 8 minutes on an orbital shaker at 4° C. […] After an incubation of 2.5 hours, the plates are read in a counter. […] The Kd for ^3H-Estradiol is determined by saturation binding to ERα and ERβ receptors. The IC50 values for test compounds are converted to Ki using the Cheng-Prusoff equation, and the Kd determined by saturation binding assay.

[4] = molecular target: T1, ERα receptor (Homo sapiens, UniProt P03372); test: Estrogen receptor competition binding assay (3H-estradiol displacement), ERα; settings: geometric mean±standard deviation, from IC50 by Cheng-Prusoff, read-out: Ki-α
T1 sequence (P03372 1-595): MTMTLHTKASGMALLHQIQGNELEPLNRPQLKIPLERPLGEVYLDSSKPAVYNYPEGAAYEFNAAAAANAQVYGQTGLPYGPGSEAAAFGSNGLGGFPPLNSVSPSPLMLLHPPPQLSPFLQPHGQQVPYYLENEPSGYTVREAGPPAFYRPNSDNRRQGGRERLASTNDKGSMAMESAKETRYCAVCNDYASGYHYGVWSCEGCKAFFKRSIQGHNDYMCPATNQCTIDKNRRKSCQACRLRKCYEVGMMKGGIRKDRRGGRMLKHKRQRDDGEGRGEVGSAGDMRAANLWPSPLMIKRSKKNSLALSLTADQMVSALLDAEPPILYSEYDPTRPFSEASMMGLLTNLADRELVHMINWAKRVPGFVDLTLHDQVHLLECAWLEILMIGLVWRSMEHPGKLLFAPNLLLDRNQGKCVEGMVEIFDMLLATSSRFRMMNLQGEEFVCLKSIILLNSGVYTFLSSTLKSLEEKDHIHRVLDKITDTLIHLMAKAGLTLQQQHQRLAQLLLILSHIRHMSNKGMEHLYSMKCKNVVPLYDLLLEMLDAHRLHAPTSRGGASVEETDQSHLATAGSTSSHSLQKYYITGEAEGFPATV
Experimental: as §1, §2, §3

[5] = system: OVX rat uterus; test: 4-Day OVX rat uterine agonist assay; format: in vivo
Experimental: 4-Day OVX Rat Uterine Agonist Assay:
Seventy-five day old rats are ovariectomized and treatment is started 14 days later when circulating estradiol levels have reached minimal levels. After 4 days of treatment with 3 doses of a test compound, (6 rats per group) body weight, uterine wet weight and uterine eosinophil peroxidase (EPO) activity are measured. Cholesterol levels are also measured to compare relative ability to lower cholesterol with other SERMs. If there is any question of uterine stimulation, histological examination will determine epithelial cell height.
A significant (>10% of the increase induced by estradiol @0.1 mg/kg) and dose-responsive increase in uterine EPO activity is used as an early indicator of potential uterine agonist activity. […] None of the groups dosed with the compound of Example 1 evidenced an increase in EPO activity that was >10% of that induced by estradiol at 0.1 mg/Kg. Significant, dose-related increases in uterine endometrial thickness have also been used as an early sign of potential SERM uterine agonist activity.

[6] = system: pCTX-II; test: P-CTXII biomarker; format: in vivo
Text: pCTX-II is believed to be a useful biomarker reflecting efficacy relating to the treatment of OA. See for example, Garnero P et al Ann Rheum Dis 2003; 62:939-943; Mazieres B et al, Arthritis Rheum 2003; 48:5683

[7] = system: OVX/MCT animals; test: OVX/Meniscal tear model of OA; format: in vivo, rat
Experimental: The rat meniscal tear (MCT) model is a well-described model of OA in which joint damage and pain are induced by surgical intervention (transection of the medial meniscus) in one knee joint. In the standard MCT model using male rats, joint pathology develops progressively and is measured via joint histology at 3 weeks post-surgery.

[8] = marker of cartilage type II collagen turnover; cited from earlier work
[9] = n=4, arithmetic mean±standard deviation

4-hydroxytamoxifen [reference compound] showed an agonist activity [1, 9] of over 100%.

With `Cc1ccc(-c2ccc3cc(O)ccc3c2Oc2ccc(OCCN3CCCCC3)cc2)s1.Cl` [Example 1, 6-(5-methylthiophen-2-yl)-5-(4-(2-(piperidin-1-yl)ethoxy)phenoxy)naphthalen-2-ol hydrochloride] the “ED50 (inhibition of estrogen-induced uterine weight/body weight ratio)” value [2] was 0.053 mg/kg, the melting point was 248.82 °C and the Ki [3] was 0.2 ± 0.2 nM. For the same compound, the IC50 ([1]; Homo sapiens, Ishikawa, antagonist mode, n=4, geometric mean±standard deviation, read-out: relative IC50) was 3.75 ± 1.71 nM, the agonist activity [1, 9] was 17.7%±11.3% and the antagonist efficacy ([1]; antagonist mode, versus E2 (1 nM) alone, n=4, arithmetic mean±standard deviation) was 102%±8.4%. For the same compound, the Ki [4] was 0.15 ± 0.22 nM, the “increase in EPO activity relative to that induced by estradiol at 0.1 mg/Kg” value ([5]; all dose groups) was “up to 10%” and the “uterine endometrial thickness, dose related increase vs OVX group” value ([5]; doses up to 10 mg/kg) was “did not result in significant, dose related increases in uterine endometrial thickness”. The “uterine EPO activity, dose related increase vs OVX group” value ([5]; doses up to 10 mg/kg, 4 days, Tukey Kramer p<0.05) was “no significant dose related increases in EPO activity”, the “pCTX-II levels compared with 17α-ethynylestradiol treatment” value ([6]; all doses) was “not statistically different from those resulting from treatment with 17α-ethynylestradiol” and the pCTX-II ([6]; in vivo) was “significantly and dose-dependently reduced pCTX-II”. The “doses with statistically significant pain reduction vs OVX/MCT group” value ([7]; OVX animals, meniscal tear) was at least 1.0 mg/kg, the joint pain ([7]; OVX animals, meniscal tear) was “reduced pain in a dose-dependent fashion” and the “reduction in joint pain compared with 17α-ethynylestradiol” value ([7]; doses of 3 and 10 mg/kg) was “not statistically different from those induced by 17α-ethynylestradiol”.

For `COc1ccc2c(c1)OC(C)(C)[C@@H](c1ccccc1)[C@@H]2c1ccc(OCCN2CCCC2)cc1` [levormeloxifene], the “urinary levels of CTX-II” value [8] is listed as “significantly decrease the urinary levels of CTX-II”.
